What was measured:
Assay in all cases: NCI 60 single concentration growth inhibition
Type in all cases: cell-based, human
[1] = system: COLO 205; details: COLO 205, Colon cancer; for GI%: 10 μM; for inhibition at 10 µM: Homo sapiens, read-out: GI%
Outline: (§1)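 For the single-dose testing, a 10 µM concentration was applied for 48 h. Adherent lines were fixed with cold TCA, stained with SRB and read at 515 nm, and the result was reported as percent growth versus untreated cells.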

[2] = system: DU-145; details: DU-145, Prostate cancer; for GI%: 10 μM; for inhibition at 10 µM: Homo sapiens, read-out: GI%
Outline: as §1

[3] = system: HCT-15; details: HCT-15, Colon cancer; for GI%: 10 μM; for inhibition at 10 µM: Homo sapiens, read-out: GI%
Outline: as §1

[4] = system: HOP-92; details: HOP-92, Non-small cell lung cancer; for GI%: 10 μM; for inhibition at 10 µM: Homo sapiens, read-out: GI%
Outline: as §1

[5] = system: HT29; details: for GI%: HT29, Colon cancer, 10 μM; for inhibition at 10 µM: Homo sapiens, HT-29, HT29, Colon cancer, read-out: GI%
Outline: as §1

[6] = system: K-562; details: for GI%: K-562, Leukemia, 10 μM; for inhibition at 10 µM: Homo sapiens, K562, K-562, Leukemia, read-out: GI%
Outline: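 Cells are plated and left 24 h, and a time-zero plate is fixed at drug addition. Compound is then added for 48 h, the cells are fixed in cold TCA and stained with 0.4% SRB, and bound dye is solubilised in 10 mM Tris for reading at 515 nm.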

[7] = system: LOX IMVIL; details: Melanoma; for GI%: 10 μM; for inhibition at 10 µM: Homo sapiens, read-out: GI%
Outline: as §1

[8] = system: NCI-H460; details: NCI-H460, Non-small cell lung cancer; for GI%: 10 μM; for inhibition at 10 µM: Homo sapiens, read-out: GI%
Outline: as §1

[9] = system: NCI-H522; details: NCI-H522, Non-small cell lung cancer; for GI%: 10 μM; for inhibition at 10 µM: Homo sapiens, read-out: GI%
Outline: as §1

[10] = system: NCI/ADR-RES; details: Ovarian cancer; for GI%: 10 μM; for inhibition at 10 µM: Homo sapiens, read-out: GI%
Outline: as §1

[11] = system: OVCAR-3; details: OVCAR-3, Ovarian cancer; for GI%: 10 μM; for inhibition at 10 µM: Homo sapiens, read-out: GI%
Outline: as §1

[12] = system: OVCAR-4; details: OVCAR-4, Ovarian cancer; for GI%: 10 μM; for inhibition at 10 µM: Homo sapiens, read-out: GI%
Outline: as §1

[13] = system: SW-620; details: SW-620, Colon cancer; for GI%: 10 μM; for inhibition at 10 µM: Homo sapiens, read-out: GI%
Outline: as §1

[14] = system: TK-10; details: TK-10, Renal cancer; for GI%: 10 μM; for inhibition at 10 µM: Homo sapiens, read-out: GI%
Outline: as §1

[15] = system: U251; details: for GI%: U251, CNS cancer, 10 μM; for inhibition at 10 µM: Homo sapiens, U-251, U251, CNS cancer, read-out: GI%
Outline: as §1

Compound	GI% [1]	GI% [2]	GI% [3]	GI% [4]	GI% [5]	inhibition at 10 µM [1] [%]	inhibition at 10 µM [2] [%]	inhibition at 10 µM [3] [%]	inhibition at 10 µM [4] [%]	inhibition at 10 µM [5] [%]	inhibition at 10 µM [6] [%]	inhibition at 10 µM [7] [%]	inhibition at 10 µM [8] [%]	inhibition at 10 µM [9] [%]	inhibition at 10 µM [10] [%]	inhibition at 10 µM [11] [%]	inhibition at 10 µM [12] [%]	inhibition at 10 µM [13] [%]	inhibition at 10 µM [14] [%]	inhibition at 10 µM [15] [%]	also measured
2-(4-((2-(2-(5,6-Dichloro-2-(4-methoxyphenyl)-1H-benzo[d]imidazol-1-yl)acetyl)hydrazono)methyl) -2-methoxyphenoxy)acetic acid [Compound 10m]	– (GI% < 5%)	– (GI% < 5%)	– (GI% < 5%)	– (GI% < 5%)	– (GI% < 5%)	–	–	–	–	–	–	–	–	–	–	–	–	–	–	–	GI% [6]: – (GI% < 5%); GI% [7]: – (GI% < 5%); GI% [8]: – (GI% < 5%); GI% [9]: 6.07%; GI% [10]: – (GI% < 5%); GI% [11]: – (GI% < 5%); GI% [12]: – (GI% < 5%); GI% [13]: – (GI% < 5%); GI% [14]: – (GI% < 5%); GI% [15]: – (GI% < 5%)
2-(5-((2-(2-(5,6-Dichloro-2-(4-methoxyphenyl)-1H-benzo[d]imidazol-1-yl)acetyl)hydrazono)methyl)-2-methoxyphenoxy)acetic acid [Compound 10n]	– (GI% < 5%)	– (GI% < 5%)	– (GI% < 5%)	– (GI% < 5%)	– (GI% < 5%)	–	–	–	–	–	–	–	–	–	–	–	–	–	–	–	GI% [6]: – (GI% < 5%); GI% [7]: 10.35%; GI% [8]: – (GI% < 5%); GI% [9]: 8.04%; GI% [10]: – (GI% < 5%); GI% [11]: – (GI% < 5%); GI% [12]: – (GI% < 5%); GI% [13]: – (GI% < 5%); GI% [14]: – (GI% < 5%); GI% [15]: – (GI% < 5%)
3-(4-((2-(2-(5,6-Dichloro-2-(4-methoxyphenyl)-1H-benzo[d]imidazol-1-yl)acetyl)hydrazono)methyl)phenoxy)propanoic acid [Compound 10i]	– (GI% < 5%)	– (GI% < 5%)	21.36%	6.61%	– (GI% < 5%)	–	–	–	–	–	–	–	–	–	–	–	–	–	–	–	GI% [6]: 10.25%; GI% [7]: 10.92%; GI% [8]: – (GI% < 5%); GI% [9]: 10.42%; GI% [10]: – (GI% < 5%); GI% [11]: – (GI% < 5%); GI% [12]: – (GI% < 5%); GI% [13]: – (GI% < 5%); GI% [14]: – (GI% < 5%); GI% [15]: 7.22%
COc1ccc(-c2nc3cc(Cl)c(Cl)cc3n2CC(=O)NN=Cc2cccc(O)c2)cc1 [Compound 10a, 2-(5,6-Dichloro-2-(4-methoxyphenyl)-1H-benzo[d]imidazol-1-yl)-N'-(3-hydroxybenzylidene)acetohydrazide]	–	–	–	–	–	46	44.2	60	23.8	41.2	66	29	46.8	30	44.5	36.6	68.1	31.7	37.2	39.3	–
COc1ccc(-c2nc3cc(Cl)c(Cl)cc3n2CC(=O)NN=Cc2ccc(O)cc2)cc1 [Compound 10b, 2-(5,6-Dichloro-2-(4-methoxyphenyl)-1H-benzo[d]imidazol-1-yl)-N'-(4-hydroxybenzylidene)acetohydrazide]	–	–	–	–	–	9.38	30.8	52.3	40	25.1	47.5	42.6	49.7	21.8	28.5	27	52.8	18.6	13.9	42.8	–
COc1ccc(-c2nc3cc(Cl)c(Cl)cc3n2CC(=O)NN=Cc2cccc(OC)c2)cc1 [Compound 10c, 2-(5,6-Dichloro-2-(4-methoxyphenyl)-1H-benzo[d]imidazol-1-yl)-N'-(3-methoxybenzylidene)acetohydrazide]	–	–	–	–	–	8.17	23.3	44.2	20.6	5.29	46.5	30.3	23.7	15.1	21.3	14.4	42.1	10.2	5.88	26.6	–
COc1ccc(C=NNC(=O)Cn2c(-c3ccc(OC)cc3)nc3cc(Cl)c(Cl)cc32)cc1 [Compound 10d, 2-(5,6-Dichloro-2-(4-methoxyphenyl)-1H-benzo[d]imidazol-1-yl)-N'-(4-methoxybenzylidene)acetohydrazide]	–	–	–	–	–	42.7	41.2	62.9	10.9	37.5	58.7	24.7	47.2	27.9	36	22.7	65	32.3	34.9	38.6	–
COc1ccc(-c2nc3cc(Cl)c(Cl)cc3n2CC(=O)NN=Cc2cccc(OCC(=O)O)c2)cc1 [Compound 10e, 2-(3-((2-(2-(5,6-Dichloro-2-(4-methoxyphenyl)-1H-benzo[d]imidazol-1-yl)acetyl)hydrazono)methyl)phenoxy)acetic acid]	–	–	–	–	–	< 5	< 5	< 5	< 5	< 5	< 5	< 5	< 5	< 5	< 5	< 5	< 5	< 5	< 5	< 5	–
COc1ccc(-c2nc3cc(Cl)c(Cl)cc3n2CC(=O)NN=Cc2ccc(OCC(=O)O)cc2)cc1 [Compound 10f, 2-(4-((2-(2-(5,6-Dichloro-2-(4-methoxyphenyl)-1H-benzo[d]imidazol-1-yl)acetyl)hydrazono)methyl)phenoxy)acetic acid]	–	–	–	–	–	< 5	< 5	6.73	< 5	< 5	< 5	8.41	< 5	< 5	< 5	< 5	< 5	< 5	< 5	< 5	–
COC(=O)COc1cccc(C=NNC(=O)Cn2c(-c3ccc(OC)cc3)nc3cc(Cl)c(Cl)cc32)c1 [Compound 10g, Methyl-2-(3-((2-(2-(5,6-dichloro-2-(4-methoxyphenyl)-1H-benzo[d]imidazol-1-yl)acetyl)hydrazono)methyl)phenoxy)acetate]	–	–	–	–	–	< 5	110	21.4	5.5	51.7	21.3	19.1	< 5	9.11	< 5	< 5	< 5	< 5	< 5	< 5	–
